Test results published in patent US6929799B2, “D-alanine racemase mutants of mycobacteria and uses therefore” (priority 2001, dated 2005).
≈ marks a conversion by molar mass, not a printed value. Where two headings read alike, the source gives them in different places.

Legend:
[1] = test system: M. smegmatis wild type mc2155; test: microbe, parasite or virus in culture; format: cell-based, Mycobacterium smegmatis; details: for MIC: Mycolicibacterium smegmatis
[2] = test system: M. smegmatis TAM23 alr mutant; test: MIC by microplate twofold dilution, alr mutant strain; format: cell-based, Mycobacterium smegmatis; details: for MIC: Mycolicibacterium smegmatis, TAM23ALRMUTANT
M. smegmatis mc2155 = format: cell-based, Mycobacterium smegmatis
M. smegmatis TAM23 = test: Bactericidal action of DCS in broth culture, alr mutant strain; format: cell-based, Mycobacterium smegmatis
[3] = target: M. smegmatis D-alanine racemase (AlrA) (Mycolicibacterium smegmatis, UniProt P94967); details: Caceres et al., 1997; listed as DCS; cited from earlier work
M. smegmatis D-alanine racemase (AlrA), sequence (P94967 whole entry): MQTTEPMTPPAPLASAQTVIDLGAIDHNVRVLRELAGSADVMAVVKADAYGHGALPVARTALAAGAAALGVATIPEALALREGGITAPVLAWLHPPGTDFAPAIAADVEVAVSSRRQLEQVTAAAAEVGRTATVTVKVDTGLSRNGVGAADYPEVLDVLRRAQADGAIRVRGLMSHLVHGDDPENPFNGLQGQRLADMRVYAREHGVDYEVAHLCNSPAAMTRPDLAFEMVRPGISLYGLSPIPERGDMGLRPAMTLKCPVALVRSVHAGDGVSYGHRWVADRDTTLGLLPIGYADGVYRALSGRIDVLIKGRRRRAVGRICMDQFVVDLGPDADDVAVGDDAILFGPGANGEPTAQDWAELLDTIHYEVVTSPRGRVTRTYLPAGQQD

D-alanine ligase = details: David, 1969; Chacon, Ph.D. thesis; cited from earlier work
[4] = MC2155, 48 h, read-out: Minimal Inhibitory Concentration (MIC)
[5] = 48 h, read-out: Minimal Inhibitory Concentration (MIC), TAM23 alr mutant, inoculum grown with 50 mM D-alanine, Middlebrook 7H9, 48 h
[6] = 48 h, read-out: Minimal Inhibitory Concentration (MIC), TAM23 alr mutant, inoculum grown without D-alanine, Middlebrook 7H9, 48 h

Row | Compound | MIC [1, 4] [µg/mL] | MIC [2, 5] [µg/mL] | MIC [2, 6] [µg/mL] | Minimal Inhibitory Concentration (MIC) [1] [µg/mL] | MIC ([1]; MC2155, read-out: MIC with D-alanine added directly into the MIC test cultures) [µg/mL] | MIC ([2]; TAM23, independent of prior growth conditions of the inocula, read-out: MIC with D-alanine added directly into the MIC test cultures) [µg/mL] | MIC for TAM23, times lower than the MIC for the wild-type strain ([2]; inoculum grown with D-alanine, washed) | Sensitivity of TAM23 relative to wild type (MIC ratio) ([2]; inoculum grown without D-alanine) | Bactericidal effect (optical density and viable counts) (M. smegmatis mc2155) | Bactericidal effect (optical density and viable counts) (M. smegmatis TAM23; DCS at 50 times the MIC (128 μg/ml), broth without D-alanine, up to 72 h) | Bactericidal drug concentration for mutant strain, fold lower than for wild-type strain (M. smegmatis TAM23; absolute drug concentrations) [fold] | Inhibition of D-alanine racemase [3] | Inhibition of D-alanine ligase activity (D-alanine ligase)
1 | CC[C@@H](CO)NCCN[C@@H](CC)CO [Ethambutol, ethambutol] | 3.13 (≈ 15.3 µM) | 3.13 (≈ 15.3 µM) | 3.13 (≈ 15.3 µM) |  |  |  |  |  |  |  |  |  | 
2 | N[C@@H]1CON=C1O [D-Cycloserine, D-cycloserine] | 75 (≈ 735 µM) | 10.2 (≈ 99.9 µM) | 2.56 (≈ 25.1 µM) | 75.0 | 1200 (≈ 11800 µM) | 1200 (≈ 11800 µM) | about 7.5 times | about 30 fold | rapid death by lysis | rapid death by lysis | 30 | inhibited by DCS in a concentration-dependent manner | inhibited
3 | CO[C@H]1/C=C/O[C@@]2(C)Oc3c(C)c(O)c4c(c3C2=O)C2=NC3(CCN(CC(C)C)CC3)NC2=C(NC(=O)/C(C)=C\C=C\[C@H](C)[C@H](O)[C@@H](C)[C@@H](O)[C@@H](C)[C@H](OC(C)=O)[C@@H]1C)C4=O [Rifabutin, rifabutin] | 2 (≈ 2.36 µM) | 1 (≈ 1.18 µM) | 2 (≈ 2.36 µM) |  |  |  |  |  |  |  |  |  | 
4 | NCC[C@H](O)C(=O)N[C@@H]1C[C@H](N)[C@@H](O[C@H]2O[C@H](CN)[C@@H](O)[C@H](O)[C@H]2O)[C@H](O)[C@H]1O[C@H]1O[C@H](CO)[C@@H](O)[C@H](N)[C@H]1O [Amikacin, amikacin] | 1.56 (≈ 2.66 µM) | 1.56 (≈ 2.66 µM) | 1.56 (≈ 2.66 µM) |  |  |  |  |  |  |  |  |  | 
